Laboratory results published in PubChem BioAssay AID2060903 (Molecular Pharmacology Branch, DTP, NCI, 2025).
Blank lines part the entries; values can stand above or below the molecule they belong to.

System: 377384-186-R-J1-PDC complex spheroid viability
Assay: Anticancer human tumor 377384-186-R-J1-PDC patient-derived pancreatic carcinoma cell line growth inhibition [RAS]
Conditions: for IC50: curve of first compound; for viability, T/C: stronger effect = lower value
How it was run: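 Multi-cell-type spheroids: tumor cells plus HUVEC endothelial cells and mesenchymal stem cells. RAS-pathway inhibitors were combined with targeted agents, each dosed in half-log steps down from clinical Cmax, or from 10 microM when Cmax was unknown.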

[1] = second compound 0.00316 µM, first compound 0.0316 µM
[2] = second compound 0.00316 µM, first compound 0.1 µM
[3] = second compound 0.00316 µM, first compound 0.316 µM
[4] = second compound 0.00316 µM, first compound 1 µM
[5] = second compound 0.01 µM, first compound 0.0316 µM
[6] = second compound 0.01 µM, first compound 0.1 µM
[7] = second compound 0.01 µM, first compound 0.316 µM
[8] = second compound 0.01 µM, first compound 1 µM
[9] = second compound 0.0316 µM, first compound 0.0316 µM
[10] = second compound 0.0316 µM, first compound 0.1 µM
[11] = second compound 0.0316 µM, first compound 0.316 µM
[12] = second compound 0.0316 µM, first compound 1 µM
[13] = second compound 0.1 µM, first compound 0.0316 µM
[14] = second compound 0.1 µM, first compound 0.1 µM
[15] = second compound 0.1 µM, first compound 0.316 µM
[16] = second compound 0.1 µM, first compound 1 µM
[17] = second compound 0.316 µM, first compound 0.0316 µM
[18] = second compound 0.316 µM, first compound 0.1 µM
[19] = second compound 0.316 µM, first compound 0.316 µM
[20] = second compound 0.316 µM, first compound 1 µM
[21] = second compound 1 µM, first compound 0.0316 µM
[22] = second compound 1 µM, first compound 0.1 µM
[23] = second compound 1 µM, first compound 0.316 µM
[24] = second compound 1 µM, first compound 1 µM
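Further: spheroids exposed to compounds for seven days before readout.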

IC50 (second compound 0.00316 µM): 659 nM | IC50 (second compound 0.01 µM): 602 nM | IC50 (second compound 0.0316 µM): 851 nM | IC50 (second compound 0.1 µM): 821 nM | IC50 (second compound 0.316 µM): 905 nM | IC50 (second compound 1 µM): 800 nM
SMILES: C=CC(=O)Nc1cc(Nc2nccc(-c3cn(C)c4ccccc34)n2)c(OC)cc1N(C)CCN(C)C + C=CC(=O)N1CCN(c2nc(OCC3CCCN3C)nc3c(F)c(-c4nc(N)cc(C)c4C(F)(F)F)c(Cl)cc23)C(C)C1
viability, T/C (second compound 0.00316 µM, first compound 0.00316 µM): 99.4% | viability, T/C (second compound 0.00316 µM, first compound 0.01 µM): 90.1% | viability, T/C [1]: 98.1% | viability, T/C [2]: 81.3% | viability, T/C [3]: 61% | viability, T/C [4]: 43.9% | viability, T/C (second compound 0.01 µM, first compound 0.00316 µM): 87.6% | viability, T/C (second compound 0.01 µM, first compound 0.01 µM): 86.8% | viability, T/C [5]: 87.8% | viability, T/C [6]: 81.2% | viability, T/C [7]: 59.9% | viability, T/C [8]: 42.2% | viability, T/C (second compound 0.0316 µM, first compound 0.00316 µM): 96.7% | viability, T/C (second compound 0.0316 µM, first compound 0.01 µM): 81.5% | viability, T/C [9]: 90.7% | viability, T/C [10]: 79.1% | viability, T/C [11]: 64.6% | viability, T/C [12]: 47.5% | viability, T/C (second compound 0.1 µM, first compound 0.00316 µM): 96.4% | viability, T/C (second compound 0.1 µM, first compound 0.01 µM): 88.8% | viability, T/C [13]: 102% | viability, T/C [14]: 77.3% | viability, T/C [15]: 70% | viability, T/C [16]: 46% | viability, T/C (second compound 0.316 µM, first compound 0.00316 µM): 92.1% | viability, T/C (second compound 0.316 µM, first compound 0.01 µM): 98.3% | viability, T/C [17]: 83.8% | viability, T/C [18]: 77.9% | viability, T/C [19]: 64.8% | viability, T/C [20]: 48.4% | viability, T/C (second compound 1 µM, first compound 0.00316 µM): 93.2% | viability, T/C (second compound 1 µM, first compound 0.01 µM): 84.1% | viability, T/C [21]: 85.2% | viability, T/C [22]: 83.9% | viability, T/C [23]: 65.6% | viability, T/C [24]: 46.2%

IC50 (second compound 0.00316 µM): 2320 nM | IC50 (second compound 0.01 µM): 2670 nM | IC50 (second compound 0.0316 µM): 2780 nM | IC50 (second compound 0.1 µM): 2450 nM | IC50 (second compound 0.316 µM): 1760 nM | IC50 (second compound 1 µM): 2060 nM
SMILES: CC(C)NCC(C(=O)N1CCN(c2ncnc3c2C(C)CC3O)CC1)c1ccc(Cl)cc1 (centres undefined) + C=CC(=O)N1CCN(c2nc(OCC3CCCN3C)nc3c(F)c(-c4nc(N)cc(C)c4C(F)(F)F)c(Cl)cc23)C(C)C1
viability, T/C [1]: 80.9% | viability, T/C [2]: 95% | viability, T/C [3]: 87.4% | viability, T/C [4]: 61.7% | viability, T/C (second compound 0.00316 µM, first compound 3.16 µM): 48.6% | viability, T/C (second compound 0.00316 µM, first compound 10 µM): 32.6% | viability, T/C [5]: 96.8% | viability, T/C [6]: 78.1% | viability, T/C [7]: 73.7% | viability, T/C [8]: 63.3% | viability, T/C (second compound 0.01 µM, first compound 3.16 µM): 46.4% | viability, T/C (second compound 0.01 µM, first compound 10 µM): 35.9% | viability, T/C [9]: 91.3% | viability, T/C [10]: 96.7% | viability, T/C [11]: 70% | viability, T/C [12]: 67.1% | viability, T/C (second compound 0.0316 µM, first compound 3.16 µM): 47.4% | viability, T/C (second compound 0.0316 µM, first compound 10 µM): 38.1% | viability, T/C [13]: 99.8% | viability, T/C [14]: 85% | viability, T/C [15]: 86.5% | viability, T/C [16]: 58.7% | viability, T/C (second compound 0.1 µM, first compound 3.16 µM): 48.2% | viability, T/C (second compound 0.1 µM, first compound 10 µM): 35.5% | viability, T/C [17]: 89.4% | viability, T/C [18]: 102% | viability, T/C [19]: 80.9% | viability, T/C [20]: 56% | viability, T/C (second compound 0.316 µM, first compound 3.16 µM): 47.8% | viability, T/C (second compound 0.316 µM, first compound 10 µM): 35% | viability, T/C [21]: 91.8% | viability, T/C [22]: 97% | viability, T/C [23]: 75.1% | viability, T/C [24]: 61.7% | viability, T/C (second compound 1 µM, first compound 3.16 µM): 44.4% | viability, T/C (second compound 1 µM, first compound 10 µM): 32.8%
